Source: the supplement of paper PMC4862054

Assays:
Settings in all cases: incubation time: 72 h
BT-474 [1] = experiment: normalised viability (% of control), CellTiter-Blue; higher = more viable cells (about 100 = DMSO control)
In short: (§1)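 Each entry is normalised viability at a single listed concentration within a series. It comes from breast cancer cell lines incubated 72 h with compound in 384-well plates, then measured with CellTiter-Blue fluorescence at 560/590 nm. Every plate was normalised between vehicle (100) and a positive kill control (0).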

CAL-120 [2] = experiment: as above
In short: as §1

CAL-51 [3] = experiment: as above
In short: as §1

CAL-85-1 [4] = experiment: as above
In short: as §1

HDQ-P1 [5] = experiment: as above
In short: as §1

Hs578T [6] = experiment: as above
In short: as §1

MDA-MB-231 [7] = experiment: as above
In short: as §1

MDA-MB-453 [8] = experiment: as above
In short: as §1

BT-474 [9] = experiment: drug sensitivity score (DSS), CellTiter-Glo (DSS (AUC-based score)); higher = stronger drug effect (viability inhibition or cytotoxicity); extreme values may be limits of the assay
In short: (§2)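 The area under the fitted dose-response curve was used to calculate the drug sensitivity score. Cells from breast cancer lines were incubated for 72 h in 384-well plates with compound at 5 concentrations spaced 10-fold over a 10,000-fold range specific to each compound. Plates were read for CellTox Green and then CellTiter-Glo, and normalised to 0.1 % DMSO and a positive kill control.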

BT-549 = experiment: as above
In short: as §2

CAL-120 [10] = experiment: as above
In short: as §2

CAL-148 = experiment: as above
In short: as §2

CAL-51 [11] = experiment: as above
In short: as §2

CAL-85-1 [12] = experiment: as above
In short: as §2

DU-4475 = experiment: as above
In short: as §2

HCC1143 = experiment: as above
In short: as §2

HCC1599 = experiment: as above
In short: as §2

HCC1937 = experiment: as above
In short: as §2

HDQ-P1 [13] = experiment: as above
In short: as §2

Hs578T [14] = experiment: as above
In short: as §2

MCF-10A = experiment: as above
In short: as §2

MDA-MB-231 [15] = experiment: as above
In short: as §2

MDA-MB-436 = experiment: as above
In short: as §2

MDA-MB-453 [16] = experiment: as above
In short: as §2

MDA-MB-468 = experiment: as above
In short: as §2

MFM-223 = experiment: as above
In short: as §2

SK-BR-3 = experiment: as above
In short: as §2

Row | Compound | normalised viability (BT-474 [1]; 10 nM) [%] | normalised viability (CAL-120 [2]; 10 nM) [%] | normalised viability (CAL-51 [3]; 1 nM) [%] | normalised viability (CAL-85-1 [4]; 1 nM) [%] | normalised viability (HDQ-P1 [5]; 1 nM) [%] | normalised viability (Hs578T [6]; 10 nM) [%] | normalised viability (MDA-MB-231 [7]; 10 nM) [%] | normalised viability (MDA-MB-453 [8]; 1 nM) [%] | drug sensitivity score (BT-474 [9]) | drug sensitivity score (BT-549) | drug sensitivity score (CAL-120 [10]) | drug sensitivity score (CAL-148) | drug sensitivity score (CAL-51 [11]) | drug sensitivity score (CAL-85-1 [12]) | drug sensitivity score (DU-4475) | drug sensitivity score (HCC1143) | drug sensitivity score (HCC1599) | drug sensitivity score (HCC1937) | drug sensitivity score (HDQ-P1 [13]) | drug sensitivity score (Hs578T [14]) | drug sensitivity score (MCF-10A) | drug sensitivity score (MDA-MB-231 [15]) | drug sensitivity score (MDA-MB-436) | drug sensitivity score (MDA-MB-453 [16]) | drug sensitivity score (MDA-MB-468) | drug sensitivity score (MFM-223) | drug sensitivity score (SK-BR-3) | normalised viability (BT-474 [1]; 100 nM) [%] | normalised viability (CAL-120 [2]; 100 nM) [%] | normalised viability (CAL-51 [3]; 10 nM) [%] | normalised viability (CAL-85-1 [4]; 10 nM) [%] | normalised viability (HDQ-P1 [5]; 10 nM) [%] | normalised viability (Hs578T [6]; 100 nM) [%] | normalised viability (MDA-MB-231 [7]; 100 nM) [%] | normalised viability (MDA-MB-453 [8]; 10 nM) [%]
1 | COc1cccc2c1C(=O)c1c(O)c3c(c(O)c1C2=O)C[C@@](O)(C(C)=O)C[C@@H]3O[C@H]1C[C@H](N)[C@H](O)[C@H](C)O1 [Daunorubicin] | 115 | 79 | 99.8 | 102 | 153 | 85.9 | 85.2 | 103 | 7.33 | 9.34 | 4.35 | 10 | 12 | 4.68 | 7.7 | 3.23 | 2.8 | 2.19 | 3.57 | 4.81 | 2.11 | 6.97 | 6.85 | 3.7 | 10.7 | 1.59 | 6.15 |  |  |  |  |  |  |  | 
2 | COc1ccc(C2=N[C@@H](c3ccc(Cl)cc3)[C@@H](c3ccc(Cl)cc3)N2C(=O)N2CCNC(=O)C2)c(OC(C)C)c1 [Nutlin-3] |  |  |  |  |  |  |  |  | 0 | 0 | 0 | 0.553 | 10.8 | 0 | 0.984 | 0 | 0 | 0 | 0 | 0 | 0 | 0 | 0 | 0.52 | 0 | 0 | 0 | 109 | 84.8 | 94.3 | 99.1 | 113 | 101 | 88.3 | 98.7
3 | O=c1[nH]c(=O)n([C@H]2C[C@H](O)[C@@H](CO)O2)cc1F [Floxuridine] |  |  |  |  |  |  |  |  | 5.99 | 1.93 | 11.1 | 0 | 17.3 | 17.5 | 1.58 | 0 | 9.95 | 10.3 | 2.32 | 24.7 | 0 | 4.12 | 9.72 | 0 | 6.72 | 0 | 12 | 117 | 66.2 | 91.8 | 93.1 | 107 | 85.8 | 97.4 | 98.5
4 | CC(=O)O[C@H]1C(=O)[C@@]2(C)[C@H]([C@H](OC(=O)c3ccccc3)[C@]3(O)C[C@H](OC(=O)[C@H](O)[C@@H](NC(=O)c4ccccc4)c4ccccc4)C(C)=C1C3(C)C)[C@]1(OC(C)=O)CO[C@@H]1C[C@@H]2O [Paclitaxel] | 54.3 | 36.9 | 91.8 | 103 | 60.8 | 26 | 35.7 | 107 | 17.2 | 24.3 | 13.2 | 18.3 | 18.9 | 22.8 | 10.4 | 20.9 | 14.2 | 10.5 | 11.5 | 23.7 | 19.8 | 17.3 | 21.1 | 9.73 | 23.5 | 16.5 | 33.6 |  |  |  |  |  |  |  | 
5 | CCS(=O)(=O)c1cccc(-c2cc(C(=O)NC3CCN(C)CC3)c(C)c3[nH]c4ncc(C)cc4c23)c1 [TAK-901] | 113 | 86.8 | 91.7 | 98 | 114 | 131 | 103 | 99.1 | 6.57 | 6.76 | 4.67 | 0 | 0 | 0 | 0 | 4.84 | 0 | 0 | 3.52 | 1.14 | 7.18 | 7.63 | 2.45 | 0 | 12.3 | 5.76 | 0 |  |  |  |  |  |  |  | 
6 | COc1c(C)cnc(Cn2cnc3c(Cl)nc(N)nc32)c1C [BIIB021] |  |  |  |  |  |  |  |  | 12.4 | 15.7 | 10.1 | 15.8 | 17.2 | 14.7 | 17.8 | 11.5 | 10.4 | 16.3 | 15.2 | 8.9 | 15.5 | 13.4 | 13.3 | 16.2 | 12.7 | 13.2 | 21.9 | 59.4 | 27.6 | 100 | 87.5 | 114 | 64.7 | 61.4 | 76.4
